Source: US9872492B2, “(S)-abscisic acid derivatives for thinning” (Valent BioSciences Corporation, priority 2015, dated 2018)

How the values were obtained:
Assay type in all cases: in vivo
McIntosh apple = assay: Thinning study of McIntosh apple (Michigan), Example 1; details: in combination with 6-benzyladenine 28 g/acre; 100 ppm derivative vs 1000 ppm S-ABA
Description: In a study carried out in Michigan, 3'-methyl-(S)-abscisic acid was mixed with 6-benzyladenine and compared with a mixture of S-ABA and 6-benzyladenine. 3'-Methyl-(S)-abscisic acid was formulated as a potassium salt in an aqueous. S-ABA was formulated as potassium salt in an aqueous formulation. […]®, a 2% (w/w) 6-benzyladenine formulation, was used as the source of 6-benzyladenine (“6-BA” in the following tables). The treatments were applied to McIntosh apple in fields when the fruit reached 10 mm in size. Six single tree replicates were sprayed with the equivalent of 100 gallons per acre using a motorized backpack mist blower. All the trees in the study were matched to about the same size and initial cropload. The fruit was harvested at maturity and the average fruit weights for each treatment group were recorded. The results are shown in Table 1 (the lower the number of fruits, the greater the thinning effect of the treatment).

Rich Lady peach = assay: Thinning study on Rich Lady peach (Yakima, Washington), Example 5; details: for Effect on fruit size (percent fruit 125 count/box or larger), in words / Effect on hand thinning required / fruit drop, in words: 30-300 ppm 3′-methyl-(S)-abscisic acid, 300-1000 ppm S-ABA; for Harvest percent fruit 125 ct/box or larger / Number hand thinned per tree: 0.05% Regulaid surfactant; for Number hand thinned per tree: hand thinned after fruit drop period
Procedure: A study was conducted in Washington (Yakima, Wash.) to determine the effect of S-ABA and 3′-methyl-(S)-abscisic acid on Rich Lady peach thinning. In this study, the initial fruit set prior to treatment was relatively uniform across the treatment groups with the exception of the 300 ppm 3′-methyl-(S)-abscisic acid treatment that had lower fruit set. Following the treatments and a period of time for fruit to drop, the trees were hand-thinned to achieve a desired commercially optimal fruit load.

Gala apple [1] = assay: Thinning study of Gala apple (Washington), chemical thinning followed by hand thinning, Example 4; details: in combination with 6-benzyladenine 28 g/acre; 300 ppm derivative vs 1000 ppm S-ABA
Procedure: Another thinning study of Gala apple was carried out in Washington using a procedure of chemical thinning followed by hand thinning. For chemical thinning, trees (size matched across all the treatment groups) were sprayed with 6-benzyladenine combined with S-ABA or S-ABA derivatives at about the 10 mm fruit diameter timing, as described in Example 1. After a period known as “June drop,” the trees were further thinned by hand to achieve the essentially identical fruit load that was deemed to be the appropriate crop load. This practice will ensure a uni-size apple crop. With this protocol, a lower requirement for the number of fruits removed by hand indicates a more efficacious chemical thinning treatment.

Gala apple [2] = assay: Thinning study of Gala apple (Michigan), repeat, Example 3
Description: In a study carried out in Michigan, 3'-methyl-(S)-abscisic acid was mixed with 6-benzyladenine and compared with a mixture of S-ABA and 6-benzyladenine. 3'-Methyl-(S)-abscisic acid was formulated as a potassium salt in an aqueous. S-ABA was formulated as potassium salt in an aqueous formulation. […]®, a 2% (w/w) 6-benzyladenine formulation, was used as the source of 6-benzyladenine (“6-BA” in the following tables). The treatments were applied to McIntosh apple in fields when the fruit reached 10 mm in size. Six single tree replicates were sprayed with the equivalent of 100 gallons per acre using a motorized backpack mist blower. All the trees in the study were matched to about the same size and initial cropload. The fruit was harvested at maturity and the average fruit weights for each treatment group were recorded. The results are shown in Table 1 (the lower the number of fruits, the greater the thinning effect of the treatment). The thinning study of Gala apple was repeated in Gala in Michigan following the same protocol described in Example 1. In addition to S-ABA and 3'methyl-(S)-ABA, 3'-propargyl-(S)-ABA was also tested for this effect.

Gala apple [3] = assay: Thinning study of Gala apple (Michigan), Example 2; details: in combination with 6-benzyladenine 28 g/acre
Description: In a study carried out in Michigan, 3'-methyl-(S)-abscisic acid was mixed with 6-benzyladenine and compared with a mixture of S-ABA and 6-benzyladenine. 3'-Methyl-(S)-abscisic acid was formulated as a potassium salt in an aqueous. S-ABA was formulated as potassium salt in an aqueous formulation. […]®, a 2% (w/w) 6-benzyladenine formulation, was used as the source of 6-benzyladenine (“6-BA” in the following tables). The treatments were applied to McIntosh apple in fields when the fruit reached 10 mm in size. Six single tree replicates were sprayed with the equivalent of 100 gallons per acre using a motorized backpack mist blower. All the trees in the study were matched to about the same size and initial cropload. The fruit was harvested at maturity and the average fruit weights for each treatment group were recorded. The results are shown in Table 1 (the lower the number of fruits, the greater the thinning effect of the treatment). A further study was carried out in Michigan, following the same protocol as described in Example 1.

| SMILES | Thinning potency relative to S-ABA (McIntosh apple) | Effect on fruit size (percent fruit 125 count/box or larger), in words (Rich Lady peach) | Effect on hand thinning required / fruit drop, in words (Rich Lady peach) | Harvest percent fruit 125 ct/box or larger (Rich Lady peach; 30 ppm) | Number hand thinned per tree (Rich Lady peach; 30 ppm) | Harvest percent fruit 125 ct/box or larger (Rich Lady peach; 100 ppm) | Number hand thinned per tree (Rich Lady peach; 100 ppm) | Harvest percent fruit 125 ct/box or larger (Rich Lady peach; 300 ppm) | Number hand thinned per tree (Rich Lady peach; 300 ppm) | Thinning potency relative to S-ABA (in words) (Gala apple [1]) | Thinning potency relative to S-ABA (in words) (Gala apple [2]; in combination with 6-benzyladenine 28 g/acre, 100 ppm derivative vs 300 ppm S-ABA) | Thinning potency relative to S-ABA (in words) (Gala apple [3]) | Thinning effect, in words (Gala apple [2]; in combination with 6-benzyladenine) | Harvest percent fruit 125 ct/box or larger (Rich Lady peach; 1000 ppm) | Number hand thinned per tree (Rich Lady peach; 1000 ppm) |
| --- | --- | --- | --- | --- | --- | --- | --- | --- | --- | --- | --- | --- | --- | --- | --- |
| CC1=C(C)[C@](O)(/C=C/C(C)=C\C(=O)O)C(C)(C)CC1=O [3′-methyl-(S)-ABA, (2Z,4E)-5-((S)-1-hydroxy-2,3,6,6-tetramethyl-4-oxocyclohex-2-en-1-yl)-3-methylpenta-2,4-dienoic acid] | about 10 times | increases with higher use rate | caused fruit drop (thinning) | 25.0% | 61.8 per tree | 30.2% | 59.2 per tree | 37.6% | 45.4 per tree | about three times more potent than S-ABA | about three times more potent than S-ABA | more potent than S-ABA |  |  |  |
| C#CCC1=C(C)[C@](O)(/C=C/C(C)=C\C(=O)O)C(C)(C)CC1=O [3′-propargyl-(S)-ABA, (2Z,4E)-5-((S)-1-hydroxy-2,6,6-trimethyl-4-oxo-3-(prop-2-yn-1-yl)cyclohex-2-en-1-yl)-3-methylpenta-2,4-dienoic acid] |  |  |  |  |  |  |  |  |  | about three times more potent than S-ABA |  |  | caused significant thinning |  |  |
| CC1=CC(=O)CC(C)(C)[C@@]1(O)/C=C/C(C)=C/C(=O)O [S-ABA, (S)-abscisic acid] |  | small increase in the fruit size in a dose dependent manner | did not reduce the hand thinning required |  |  |  |  | 27.6% | 61.2 per tree |  |  |  |  | 29.7% | 67.8 per tree |
